From patent US11530198B2, “Compositions and methods for treating infections” (priority 2016, dated 2022)

These compounds were tested against hDHFR (Homo sapiens (Human), UniProt P00374) (assay: DHFR inhibition assay (diaphorase/resazurin coupled, fluorescence of resorufin), human DHFR). Details: Table 11.
Chain of hDHFR (P00374 whole entry): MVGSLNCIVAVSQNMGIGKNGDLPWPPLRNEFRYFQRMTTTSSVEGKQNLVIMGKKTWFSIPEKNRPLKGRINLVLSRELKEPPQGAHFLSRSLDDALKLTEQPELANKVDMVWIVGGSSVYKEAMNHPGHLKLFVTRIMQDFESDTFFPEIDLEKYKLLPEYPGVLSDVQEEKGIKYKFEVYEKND
Assay type: biochemical
With `Nc1ncc(N2CCN(c3cccc(C(F)(F)F)c3)CC2)c(N)n1` [Compound 3, 5-(4-(3-(trifluoromethyl)phenyl)piperazin-1-yl)pyrimidine-2,4-diamine] the “hDHFR pIC50-DHFR primary assay” value was 6.27.
`Nc1ncc(N2CCN(c3ccc(Cl)cc3)CC2)c(N)n1` [Compound 6, 5-(4-(4-chlorophenyl)piperazin-1-yl)pyrimidine-2,4-diamine] was tested, and the “hDHFR pIC50-DHFR primary assay” value was 5.96.
In the case of `Cc1cccc(N2CCN(c3cnc(N)nc3N)CC2)c1` [Compound 7, 5-(4-(m-tolyl)piperazin-1-yl)pyrimidine-2,4-diamine], the “hDHFR pIC50-DHFR primary assay” value is reported as 5.22.
For `Nc1ncc(N2CCN(c3cccc(C4CC4)c3)CC2)c(N)n1` [Compound 66, 5-(4-(3-cyclopropylphenyl)piperazin-1-yl)pyrimidine-2,4-diamine], the “hDHFR pIC50-DHFR primary assay” value was 5.79.
For `Nc1ncc(N2CCN(c3cccc(-c4ccnnc4)c3)CC2)c(N)n1` [Compound 73, 5-(4-(3-(pyridazin-4-yl)phenyl)piperazin-1-yl)pyrimidine-2,4-diamine], the “hDHFR pIC50-DHFR primary assay” value was 5.96.
`Nc1ncc(N2CCN(c3cccc(-c4cncnc4)c3)CC2)c(N)n1` [Compound 74, 5-(4-(3-(pyrimidin-5-yl)phenyl)piperazin-1-yl)pyrimidine-2,4-diamine] was tested, and the “hDHFR pIC50-DHFR primary assay” value was 5.84.

These compounds were tested against T. gondii DHFR (tgDHFR) (Toxoplasma gondii, UniProt Q07422) (assay: not given). Details: not given.
`Nc1ncc(N2CCN(c3cccc(C(F)(F)F)c3)CC2)c(N)n1` [Compound 3, 5-(4-(3-(trifluoromethyl)phenyl)piperazin-1-yl)pyrimidine-2,4-diamine] was tested, and the “tgDHFR pIC50-DHFR primary assay” value was 7.21.
In the case of `Nc1ncc(N2CCN(c3ccc(Cl)cc3)CC2)c(N)n1` [Compound 6, 5-(4-(4-chlorophenyl)piperazin-1-yl)pyrimidine-2,4-diamine], the “tgDHFR pIC50-DHFR primary assay” value is reported as 7.34.
`Cc1cccc(N2CCN(c3cnc(N)nc3N)CC2)c1` [Compound 7, 5-(4-(m-tolyl)piperazin-1-yl)pyrimidine-2,4-diamine] was tested, and the “tgDHFR pIC50-DHFR primary assay” value was 7.12.
In the case of `CCc1nc(N)nc(N)c1N1CCN(c2cccc(OC)c2)CC1` [Compound 33, 6-ethyl-5-(4-(3-methoxyphenyl)piperazin-1-yl)pyrimidine-2,4-diamine], the “Average DHFR selectivity (h/tg)” value is reported as 120.23.
With `Nc1ncc(N2CCN(c3cccc(C4CC4)c3)CC2)c(N)n1` [Compound 66, 5-(4-(3-cyclopropylphenyl)piperazin-1-yl)pyrimidine-2,4-diamine] the “tgDHFR pIC50-DHFR primary assay” value was 7.54.
With `Nc1ncc(N2CCN(c3cccc(-c4ccnnc4)c3)CC2)c(N)n1` [Compound 73, 5-(4-(3-(pyridazin-4-yl)phenyl)piperazin-1-yl)pyrimidine-2,4-diamine] the “tgDHFR pIC50-DHFR primary assay” value was 8.22.
In the case of `Nc1ncc(N2CCN(c3cccc(-c4cncnc4)c3)CC2)c(N)n1` [Compound 74, 5-(4-(3-(pyrimidin-5-yl)phenyl)piperazin-1-yl)pyrimidine-2,4-diamine], the “tgDHFR pIC50-DHFR primary assay” value is reported as 8.32.

Same assay, conditions: hDHFR IC50/tgDHFR IC50
For `Nc1ncc(N2CCN(c3ccc(Cl)c(Cl)c3)CC2)c(N)n1` [Compound 1, 5-(4-(3,4-dichlorophenyl)piperazin-1-yl)pyrimidine-2,4-diamine], the “Average DHFR selectivity (h/tg)” value was 5.5.
`Nc1ncc(N2CCN(c3cccc(Br)c3)CC2)c(N)n1` [Compound 11, 5-(4-(3-bromophenyl)piperazin-1-yl)pyrimidine-2,4-diamine] was tested, and the “Average DHFR selectivity (h/tg)” value was 37.15.
In the case of `Nc1ncc(N2CCC(c3ccccc3)CC2)c(N)n1` [Compound 15, 5-(4-phenylpiperidin-1-yl)pyrimidine-2,4-diamine], the “Average DHFR selectivity (h/tg)” value is reported as 25.26.
For `Nc1ncc(N2CCN(c3cccc(N4CCOCC4)c3)CC2)c(N)n1` [Compound 25, 5-(4-(3-morpholinophenyl)piperazin-1-yl)pyrimidine-2,4-diamine], the “Average DHFR selectivity (h/tg)” value was 105.15.
For `CC1CN(c2cnc(N)nc2N)CCN1c1cccc(-c2ccccc2)c1` (centres unmarked) [Compound 26, 5-(4-([1,1′-biphenyl]-3-yl)-3-methylpiperazin-1-yl)pyrimidine-2,4-diamine], the “Average DHFR selectivity (h/tg)” value was 14.96.
`CC1CN(c2cccc(-c3ccccc3)c2)CCN1c1cnc(N)nc1N` (centres unmarked) [Compound 27, 5-(4-([1,1′-biphenyl]-3-yl)-2-methylpiperazin-1-yl)pyrimidine-2,4-diamine] was tested, and the “Average DHFR selectivity (h/tg)” value was 218.78.
`CCc1nc(N)nc(N)c1N1CCN(c2ccccc2)CC1` [Compound 28, 6-ethyl-5-(4-phenylpiperazin-1-yl)pyrimidine-2,4-diamine] was tested, and the “Average DHFR selectivity (h/tg)” value was 235.78.
In the case of `CCc1nc(N)nc(N)c1N1CCN(c2cccc(C)c2)CC1` [Compound 31, 6-ethyl-5-(4-(m-tolyl)piperazin-1-yl)pyrimidine-2,4-diamine], the “Average DHFR selectivity (h/tg)” value is reported as 119.54.
For `CCc1nc(N)nc(N)c1N1CCN(c2ccccn2)CC1` [Compound 34, 6-ethyl-5-(4-(pyridin-2-yl)piperazin-1-yl)pyrimidine-2,4-diamine], the “Average DHFR selectivity (h/tg)” value was 158.49.
In the case of `CCc1nc(N)nc(N)c1N1CCN(c2ccncc2)CC1` [Compound 36, 6-ethyl-5-(4-(pyridin-4-yl)piperazin-1-yl)pyrimidine-2,4-diamine], the “Average DHFR selectivity (h/tg)” value is reported as 110.92.
In the case of `CCc1nc(N)nc(N)c1N1CCN(c2ccc(C)cc2)CC1` [Compound 39, 6-ethyl-5-(4-(p-tolyl)piperazin-1-yl)pyrimidine-2,4-diamine], the “Average DHFR selectivity (h/tg)” value is reported as 144.58.
`CCc1nc(N)nc(N)c1N1CCN(c2ccc(F)cn2)CC1` [Compound 44, 6-ethyl-5-(4-(5-fluoropyridin-2-yl)piperazin-1-yl)pyrimidine-2,4-diamine] was tested, and the “Average DHFR selectivity (h/tg)” value was 71.23.
`CCc1nc(N)nc(N)c1N1CCN(c2ccc(C)cn2)CC1` [Compound 45, 6-ethyl-5-(4-(5-methylpyridin-2-yl)piperazin-1-yl)pyrimidine-2,4-diamine] was tested, and the “Average DHFR selectivity (h/tg)” value was 136.15.
For `Cc1nc(N)nc(N)c1N1CCN(c2ccccc2)CC1` [Compound 47, 6-methyl-5-(4-phenylpiperazin-1-yl)pyrimidine-2,4-diamine], the “Average DHFR selectivity (h/tg)” value was 84.63.
With `CCCc1nc(N)nc(N)c1N1CCC(c2ccccc2)CC1` [Compound 51, 5-(4-phenylpiperidin-1-yl)-6-propylpyrimidine-2,4-diamine] the “Average DHFR selectivity (h/tg)” value was 241.03.
With `CCCc1nc(N)nc(N)c1N1CCN(c2ccc(F)cc2)CC1` [Compound 52, 5-(4-(4-fluorophenyl)piperazin-1-yl)-6-propylpyrimidine-2,4-diamine] the “Average DHFR selectivity (h/tg)” value was 303.92.
With `CCCc1nc(N)nc(N)c1N1CCN(c2ccccn2)CC1` [Compound 56, 6-propyl-5-(4-(pyridin-2-yl)piperazin-1-yl)pyrimidine-2,4-diamine] the “Average DHFR selectivity (h/tg)” value was 269.78.
For `CCCc1nc(N)nc(N)c1N1CCN(c2ncc(C)cn2)CC1` [Compound 59, 5-(4-(5-methylpyrimidin-2-yl)piperazin-1-yl)-6-propylpyrimidine-2,4-diamine], the “Average DHFR selectivity (h/tg)” value was 118.81.
With `CCCc1nc(N)nc(N)c1N1CCN(c2ccc(OC)cn2)CC1` [Compound 60, 5-(4-(5-methoxypyridin-2-yl)piperazin-1-yl)-6-propylpyrimidine-2,4-diamine] the “Average DHFR selectivity (h/tg)” value was 149.75.
For `Nc1ncc(N2CCN(c3cccc(-c4cccc(F)c4)c3)CC2)c(N)n1` [Compound 64, 5-(4-(3′-fluoro-[1,1′-biphenyl]-3-yl)piperazin-1-yl)pyrimidine-2,4-diamine], the “Average DHFR selectivity (h/tg)” value was 93.86.
For `N#Cc1cccc(-c2cccc(N3CCN(c4cnc(N)nc4N)CC3)c2)c1` [Compound 67, 3′-(4-(2,4-diaminopyrimidin-5-yl)piperazin-1-yl)-[1,1′-biphenyl]-3-carbonitrile], the “Average DHFR selectivity (h/tg)” value was 77.18.
With `COc1ncccc1-c1cccc(N2CCN(c3cnc(N)nc3N)CC2)c1` [Compound 80, 5-(4-(3-(2-methoxypyridin-3-yl)phenyl)piperazin-1-yl)pyrimidine-2,4-diamine] the “Average DHFR selectivity (h/tg)” value was 165.32.
`CN(C)c1ncc(-c2cccc(N3CCN(c4cnc(N)nc4N)CC3)c2)cn1` [Compound 96, 5-(4-(3-(2-(dimethylamino)pyrimidin-5-yl)phenyl)piperazin-1-yl)pyrimidine-2,4-diamine] was tested, and the “Average DHFR selectivity (h/tg)” value was 115.48.
For `CNc1ncc(-c2cccc(N3CCN(c4cnc(N)nc4N)CC3)c2)cn1` [Compound 97, 5-(4-(3-(2-(methylamino)pyrimidin-5-yl)phenyl)piperazin-1-yl)pyrimidine-2,4-diamine], the “Average DHFR selectivity (h/tg)” value was 131.33.
For `Nc1nc(N)c(N2CCN(c3ccccc3)CC2)c(CC2CC2)n1` [Compound 106], the “Average DHFR selectivity (h/tg)” value was 218.96.
